The nature of the assay: Antioxidant activity assessed as trolox equivalents of ABTS radical scavenging activity. The class given is functional.

In the case of `COc1ccc(Nc2nc(N)c(C(=O)c3ccccc3)s2)cc1`, the Activity was found to be 0.17 µM.
